From patent publication US5859010A, “Factor VII -binding reagent” (Novo Nordisk A/S, priority 1996, dated 1999)
One block for each molecule: values may come before it.

How the values were obtained:
[1] = blood; cited from earlier work
[2] = target: T1, Factor VIIa/tissue factor (Homo sapiens, UniProt P08709); assay: FVIIa/tissue factor activity measured with S2288 in presence and absence of Zn and chelator; type: biochemical; details: 10 nM FVIIa, 50 nM tissue factor
T1 construct: Single-chain factor VII may be converted to two-chain factor VIIa
Protocol: The activity of 10 nM FVIIa and 50 nM tissue factor in the presence and absence of Zn and chelator was measured with S2288 as described in Example 4

[3] = tested on: factor VIIa; assay: Effect of zinc and calcium ions on the activity of factor VIIa (FIG. 1A); type: biochemical; details: absence of tissue factor (FIG. 1A)
Description: (§1) An effect of Ca^2+ ions is not easily contemplated in this model since the binding site for Ca^2+ in the serine protease domain is not nearby. […] Since histidines are prominant in zinc coordination we further propose that one or more of the residues of His 211, His 216 and His 256 are involved in the binding of Zn^2+ ions to factor VIIa.

[4] = tested on: factor VIIa-tissue factor complex; assay: Effect of zinc and calcium ions on the activity of the factor VIIa-tissue factor complex (FIG. 1B); type: biochemical; details: presence of tissue factor (FIG. 1B)
Description: as §1

T1 sequence (P08709 213-466 limits assumed): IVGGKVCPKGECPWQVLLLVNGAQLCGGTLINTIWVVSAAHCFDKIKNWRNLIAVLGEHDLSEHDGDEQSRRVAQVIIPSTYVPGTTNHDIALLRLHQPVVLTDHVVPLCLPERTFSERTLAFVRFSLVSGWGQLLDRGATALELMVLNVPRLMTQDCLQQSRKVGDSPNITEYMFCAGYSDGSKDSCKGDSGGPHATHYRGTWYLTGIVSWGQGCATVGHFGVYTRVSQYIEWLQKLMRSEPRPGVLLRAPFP
T1 sequence (P08709 61-212 partner limits assumed): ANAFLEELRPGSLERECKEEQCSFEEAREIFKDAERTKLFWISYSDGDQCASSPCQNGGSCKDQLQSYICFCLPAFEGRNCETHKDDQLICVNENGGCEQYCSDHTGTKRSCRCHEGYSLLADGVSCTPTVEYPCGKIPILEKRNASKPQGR
T1 sequence (P13726 33-295 partner): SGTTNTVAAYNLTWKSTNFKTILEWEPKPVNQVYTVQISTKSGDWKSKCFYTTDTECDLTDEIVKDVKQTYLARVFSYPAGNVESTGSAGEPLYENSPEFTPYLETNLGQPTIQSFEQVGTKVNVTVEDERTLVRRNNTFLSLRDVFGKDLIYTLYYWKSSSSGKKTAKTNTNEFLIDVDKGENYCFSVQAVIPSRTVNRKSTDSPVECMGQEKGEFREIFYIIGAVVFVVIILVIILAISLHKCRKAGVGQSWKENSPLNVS

Molecule: heparin
- half-life [1]: approximately 80 minutes

- activity at 50 µM ([2]; 100 μM ZnCl2, 50 μM compound): 55%
- activity at 50 µM ([2]; No ZnCl2, 50 μM compound): 98%
Molecule: O=C(NO)c1cc(C(=O)NO)[nH]n1 [NNC (28)]

Molecule: [Zn+2] [Zn^2+]
- inhibitory effect of Zn2+ on factor VIIa activity in presence of Ca2+ [3]: partly abolished by Ca^2+ ions in a competitive manner
- inhibitory effect of Zn2+ on factor VIIa activity in presence of Ca2+ [4]: partly abolished by Ca^2+ ions in a competitive manner
